Data on 2 compounds can be found in US20230270752A1, “METHODS OF TREATING PHELAN MCDERMID SYNDROME USING FARNESYL DIBENZODIAZEPINONES” (AMO Pharma Ltd., priority 2017, published 2023).

Entries after “also recorded” stand apart in the source; their conditions may differ.

In assay [1] the test system is induced pluripotent stem (IPS) cell lines derived from PMS patients. Conditions: PMS patient-derived IPS cell lines; cited from earlier work.
The subject of a further assay is Shank3 knockout mouse. To be noted: Shank3 exon 4-9 deletion mouse; cited from earlier work.
Another assay relates to Shank3 knockout mice. Conditions: placebo controlled, 12 weeks of treatment; cited from earlier work.
The test system of assay [2] is Shank3b KO transgenic model of PMS. Nature of the assay: Light dark box test (anxiety). Format: in vivo, mice. Conditions: single dose 30 mg/kg i.p., 4 hours before testing. As for the experimental part:
(§1) Shank3b^-/- homozygous mice with deletions of exons 13-16, initially obtained from the Jackson Laboratory, and wild type (WT) littermates were generated on a C57BL/6J background and repeatedly backcrossed onto a C57BL/6J background for more than eight generations. The resulting Shank3 knockout (KO) mice were housed in groups of the same genotype in a temperature and humidity controlled room with a 12-h light-dark cycle (lights on 7 am to 7 pm). Room temperature and humidity were recorded continuously in the holding room. Testing was conducted during the light phase. Food and water were available ad libitum. Testing was conducted on Shank3 knockout mice and their wild type littermates, with N = 10 mice per treatment group, tested at two months of age during behavioral experiments. Mice were housed in commercial plastic cages and experiments were conducted in line with the requirements of the UK Animals (Scientific Procedures) Act, 1986. All experiments were conducted with experimenters blind to genotype and drug treatment. Animals were allowed a minimum acclimatization period of one week prior to performing any experiment. Only healthy animals were used. No prophylactic or therapeutic treatment was to be administered during the acclimatization period. […]

Assay [3] has the same test system. In words: Excessive self-grooming test (self-injurious behavior). It counts as in vivo, mice. Conditions: single dose 30 mg/kg i.p. As for the experimental part: as §1, with “experiment.” for “experiment. Only healthy animals were used. No prophylactic or therapeutic treatment was to be administered during the acclimatization period.”
Day 2: Excessive grooming leading to skin lesions. […] During this test, time spent grooming in all sequences: face-wiping, scratching/rubbing of head and ears, and full-body grooming was scored by an observer blind to genotype during the scoring.

For assay [4] the test system is unchanged. Nature of the assay: Social recognition and response to social novelty test. Format: in vivo, mice. To be noted: single dose 30 mg/kg i.p. How it is done:
as §1

Assay [5] has the same test system. Nature of the assay: Beam walking test (sensory motor function). Format: in vivo, mice. To be noted: single dose 30 mg/kg i.p. How it is done:
as §1
Day 4: Sensory motor function as assessed by beam walking tests. […]

For assay [6] the test system is unchanged. In words: Marble burying test (species typical behaviors). Format: in vivo, mice. To be noted: single dose 30 mg/kg i.p. As for the experimental part: as §1
Day 5: Activities of daily living / species typical behaviors as assessed by marble burying. […]

For assay [7] the test system is unchanged. Nature of the assay: Audiogenic seizure threshold test. It counts as in vivo. To be noted: Shank3b KO mice, single dose 30 mg/kg i.p., 124 db 60 s stimulus. As for the experimental part: as §1
Seizure threshold as assessed by audiogenic seizures was assessed in a separate cohort with N = 10 per group. […]

For assay [8], the system named is Shank3 knockout transgenic mouse model of Phelan McDermid Syndrome. Nature of the assay: Behavioral testing battery overall (five days after single dose). It counts as in vivo, mice. How it is done:
Shank3b^-/- homozygous mice with deletions of exons 13-16, initially obtained from the Jackson Laboratory, and wild type (WT) littermates were generated on a C57BL/6J background and repeatedly backcrossed onto a C57BL/6J background for more than eight generations. The resulting Shank3 knockout (KO) mice were housed in groups of the same genotype in a temperature and humidity controlled room with a 12-h light-dark cycle (lights on 7 am to 7 pm). Room temperature and humidity were recorded continuously in the holding room. Testing was conducted during the light phase. Food and water were available ad libitum. Testing was conducted on Shank3 knockout mice and their wild type littermates, with N = 10 mice per treatment group, tested at two months of age during behavioral experiments. Mice were housed in commercial plastic cages and experiments were conducted in line with the requirements of the UK Animals (Scientific Procedures) Act, 1986. All experiments were conducted with experimenters blind to genotype and drug treatment. Animals were allowed a minimum acclimatization period of one week prior to performing any experiment. Only healthy animals were used. No prophylactic or therapeutic treatment was to be administered during the acclimatization period.
AMO-01 from AMO Pharma Ltd was administered to mice as follows: • A. AMO-01 at a single dose of 30 mg/kg intraperitoneally in a vehicle of ethanol, PEG 400 and polysorbate 80 and 5% dextrose • B. Vehicle dosed intraperitoneally as 15 ml/kg Groups of N = 10 mice were treated 4 hours before testing on the first day of testing. Five days of testing were undertaken following the single intraperitoneal dose administered on Day 1.
The following groups were studied: • 1. Shank3b^-/- knockout mice + vehicle, N = 10 • 2. Shank3b^-/- knockout mice + AMO-01 30 mg/kg i.p., N = 10 • 3. Wild Type litter mates + vehicle, N = 10 • 4. Wild Type litter mates + AMO-01 30 mg/kg i.p., N = 10
The following tests were administered.

For assay [9], the system named is person with a genetically confirmed diagnosis of Phelan McDermid Syndrome. Nature of the assay: Clinical assessment of seizures and behavior in a Phelan McDermid Syndrome subject. To be noted: human PMS subject. Format: in vivo. How it is done:
A person with a genetically confirmed diagnosis of Phelan McDermid Syndrome was administered AMO-01.
(§2) The study drug was prepared from a sterile bulk formulation containing 32.8 mg/mL (3.15% w/w) of the active drug substance dissolved in sterile 0.9% saline solution to produce an isotonic final dosing formulation. Each drug product vial contained 70 mg of AMO-01 drug substance in 2.134 mL of formulation (plus 2% overage). This corresponded to a total drug content of 71.4 mg of active drug substance per 2.176 mL of formula. AMO-01 was administered as a single dose via intravenous infusions over a 6 hour period, with the total dose administered as 120 mg/m^2.
Seizure frequency and Visual Evoked Potentials (VEPs) were assessed alongside clinical measures. VEPs provide a noninvasive technique to evaluate the functional integrity of visual pathways in the brain from the retina to the visual cortex via the optic nerve/optic radiations. The VEP is recorded from the head’s surface, over the visual cortex, and is extracted from ongoing EEG through signal averaging. VEPs reflect the sum of excitatory and inhibitory postsynaptic potentials occurring on apical dendrites (Zemon et al., 1986) which modulate excitatory and inhibitory signals received by the pyramidal cells. The major positive and negative peaks and troughs in VEP waveforms reflect different cellular events. The contrast-reversing checkerboard stimulus used in this study produces a positive peak at approximately 60 ms (P0 or P60), reflecting activation of the primary visual cortex from the lateral geniculate nucleus. A negative peak at approximately 75 ms (N0 or N75) reflecting depolarization and glutamatergic postsynaptic activity spreading to the superficial layers of primary visual cortex, and a positive peak at approximately 100 ms (P1 or P100) reflecting superficial hyperpolarization and GABAergic activity (Zemon et al., 1980). VEPs have been used in clinical trials; for example, an antiepileptic drug (gabapentin; Conte et al., 2009) and an infant formula (O′Connor et al., 2009). Both received FDA approval based in part on positive findings from VEP studies. Data from ongoing clinical trials at Mount Sinai provide support for use of VEPs as a measure of treatment response. Assessments of clinical response were made before treatment, after six hours of treatment, and one week, two weeks and four weeks after treatment according to the schematic in FIG. 8.

Assay [10] shares this test system. In words: Visual Evoked Potentials in a Phelan McDermid Syndrome subject. Format: in vivo. To be noted: human PMS subject, 120 mg/m^2 i.v. over 6 hours. As for the experimental part:
as §2
Seizure frequency and Visual Evoked Potentials (VEPs) were assessed alongside clinical measures. VEPs provide a noninvasive technique to evaluate the functional integrity of visual pathways in the brain from the retina to the visual cortex via the optic nerve/optic radiations. The VEP is recorded from the head’s surface, over the visual cortex, and is extracted from ongoing EEG through signal averaging. VEPs reflect the sum of excitatory and inhibitory postsynaptic potentials occurring on apical dendrites (Zemon et al., 1986) which modulate excitatory and inhibitory signals received by the pyramidal cells. The major positive and negative peaks and troughs in VEP waveforms reflect different cellular events. […]

Setting [11] is: Shank3 knockout mice, 30 mg/kg i.p. single dose.

With “IGF-1: insulin-like growth factor 1 (IGF-1)”, the “Impaired post-synaptic AMPA and NMDA receptor responses / excitatory synapse deficits” value in assay [1] is “rescued”. Further, the “Phenotype / deficits of Shank3 knockout mouse” value in the assay on Shank3 knockout mouse is given as “deficits in this model reversed; also recorded: rescue of the phenotype”. Further, the “Social, repetitive and aberrant behaviors” value in the assay on Shank3 knockout mice is “improvements in social, repetitive and aberrant behaviors”.

`CC(C)=CCC/C(C)=C/CC/C(C)=C/CN1C(=O)c2cccc(O)c2Nc2c(O)cc(O)cc21` [AMO-01, 10-farnesyl-4,6,8-trihydroxy-dibenzodiazepin-11-one]: in assay [2] (Shank3b-/- KO mice, Day 1), the “Anxiety deficit in light dark box test” value is given as “significantly reduced the deficit shown in Shank3b^-/- mice (p <0.0001) although this reversal was not complete”. Also, in [2] (Wild Type mice), the “Effect on light dark box anxiety behavior” value is given as “no significant effect”. Besides, the Excessive self-grooming deficit entry in assay [3] (Shank3b-/- KO mice, Day 2) is “significantly reduced the deficit shown in Shank3b^-/- mice (p <0.0001). This reversal was complete”. Moreover, the Effect on self-grooming result in assay [3] (Wild Type mice) was “no significant effect”. In addition, the “Response to social novelty (time in interaction with familiar or novel mouse)” value in [4] (Shank3b KO mice, Day 3, 30 mg/kg) is recorded as “rescue of response to social novelty; also recorded: normalizes the differential response to social novelty”. Further, the “Response to social novelty (time in interaction with familiar or novel mouse)” value in assay [4] (Wild Type mice) is “not affected by treatment”. For the same compound, the Beam walking deficit result in assay [5] (Shank3b-/- KO mice, Day 4) is “significantly reduced the deficit shown in Shank3b^-/- mice (p <0.0001). This reversal was complete”. For the same compound, in assay [5] (Wild Type mice), the “Effect on beam walking behavior” value is “no significant effect”. The Marble burying deficit entry in [6] (Shank3b-/- KO mice, Day 5) is reported as “significantly reduced the deficit shown in Shank3b^-/- KO mice (p <0.0001). This reversal was complete”. In assay [6] (Wild Type mice), the “Effect on marble burying behavior” value is “no significant effect”. Moreover, in assay [7], the Audiogenic seizure threshold entry is reported as “rescue of lowered audiogenic seizure threshold”. In [8] (setting [11]), the “Deficits across anxiety, grooming, sociability, sensori-motor and species typical behaviour domains” value is “reversed deficits in all of these domains”; the “Duration of rescue of the phenotype after a single dose” value is listed as “persisted for at least five days”. For the same compound, in assay [8] (Wild Type mice, 30 mg/kg i.p.), the “Effect across anxiety, grooming, sociability, sensori-motor function, species typical behaviours, cognition” value is recorded as “without effect”. Further, in [9] (120 mg/m^2 i.v. over 6 hours), the “Recurrence of seizure events after infusion” value is on record as “Approximately three weeks after the study drug infusion”; the “Social, behavioral and motor changes during seizure-free period” value was “became more social, more engaged (e.g. better eye contact), more cooperative, less restless, and their motor skills also improved”. Moreover, the “Seizure occurrence after infusion” value in assay [9] (120 mg/m^2 i.v. over 6 hours, baseline 3 to 4 seizures a week) is reported as “seizures stopped altogether for the next two weeks”. In assay [9] (single i.v. infusion 120 mg/m^2 over 6 hours), the “Impending seizure episode at time of infusion” value is listed as “appeared to completely abort the impending seizure episode”. Moreover, the “Visual Evoked Potentials before vs six hours after infusion” value in [10] is given as “ameliorated by treatment”.
